Experimental data taken from patent US20170058314A1, “NOVEL METHODOLOGY FOR IDENTIFYING ANTI-PERSISTER ACTIVITY AND ANTIMICROBIAL SUSCEPTIBILITY FOR BORRELIA BURGDORFERI AND OTHER BACTERIA” (priority 2014, published 2017).
In brackets after ≈: the same amount, converted by molar mass. Where a name gives a salt, the structure may show the parent alone. Read-outs that look alike come from different tables or passages of the source. Starred links: 1 amine or outer side, 2 acyl side, 3 side chain; linkers in the order of their positions; H or OH if unused. Positions of bridges follow the written chain, without caps; N, C: chain ends. Non-standard residues stand in square brackets, D forms with d. Residues, ends and D or L forms follow the SMILES beside them. Chains are numbered I, II in the order given. Actinocin(9to1) = Cc1c2oc3c(C)ccc(C(=O)[*:1])c3nc-2c(C(=O)[*:2])c(N)c1=O; NMeV = CN[C@H](C(=O)O)C(C)C; Sar = CNCC(=O)O

Legend:
[1] = test system: B. burgdorferi (growing, strain B31); test: MIC determination, standard microdilution method; format: cell-based, Borrelia burgdorferi
[2] = test system: stationary phase B. burgdorferi persisters (strain B31); test: NCI compound library rescreen, epifluorescence microscope counting; details: for viability at 50 µM / viability at 20 µM: Borreliella burgdorferi, 168 h; for viability at 20 µM: read-out: Residual viable cells (%) 20 μM (epifluorescence microscope counting); for Residual viable cells (%) 20 μM (epifluorescence microscope counting) / Residual viable cells (%) 50 μM (epifluorescence microscope counting): seven day old stationary phase; for Residual viable cells (%) 20 μM (epifluorescence microscope counting) / Residual viable cells (epifluorescence microscope counting) / Residual viable cells (%) 50 μM (epifluorescence microscope counting): 7 days; for Residual viable cells (epifluorescence microscope counting) / Residual viable cells (%) 50 μM (epifluorescence microscope counting): 50 μM; for Residual viable cells (epifluorescence microscope counting): seven day old stationary phase culture
[3] = test system: stationary phase B. burgdorferi persisters (strain B31); test: NCI compound library screen, SYBR Green I/PI assay (plate reader); details: for viability at 50 µM / viability at 20 µM: Borreliella burgdorferi, 168 h; for Residual viable cells (%) 20 μM (SYBR Green I/PI assay): seven day old stationary phase; for Residual viable cells (%) 20 μM (SYBR Green I/PI assay) / Residual viable cells (SYBR Green I/PI assay): 7 days; for Residual viable cells (SYBR Green I/PI assay): 50 μM, seven day old stationary phase culture
[4] = read-out: Activity against persisters (residual viable cell percentage)
[5] = read-out: Residual viable cells (epifluorescence microscope counting)
[6] = read-out: Residual viable cells (SYBR Green I/PI assay), 50 μM, seven day old stationary phase culture, 7 days
[7] = Borreliella burgdorferi, growing B. burgdorferi, read-out: MIC
[8] = read-out: Residual viable cells (%) 50 μM (epifluorescence microscope counting)
[9] = read-out: Residual viable cells (%) 20 μM (SYBR Green I/PI assay)
[10] = read-out: Residual viable cells (SYBR Green I/PI assay)

Molecule	viability at 50 µM [2, 4] [%]	viability at 50 µM [2, 5] [%]	viability at 20 µM [2] [%]	viability at 50 µM [2, 8] [%]	viability at 20 µM [3, 9] [%]	viability at 50 µM [3, 10] [%]	other results
CO[C@@]12[C@H](COC(N)=O)C3=C(C(=O)C(C)=C(N)C3=O)N1C[C@@H]1N[C@@H]12 [NSC26980, Mitomycin]	25	25					MIC ([1]; Borreliella burgdorferi): ≤ 0.21 µg/mL; MIC ([1]; growing B. burgdorferi): ≦0.21 μg/mL; viability at 50 µM [3, 6]: 20%
CC1Oc2cc3c(-c4c(O)cc(O)c5c(O)c6c(cc45)OC(C)C(C)C6=O)c(O)cc(O)c3c(O)c2C(=O)C1C (centres unmarked) [NSC345647, Chaetochromin]	22	22	33	22	31	8	MIC [1, 7]: 2.74 to 5.47 µg/mL (≈ 5.01 to 10 µM)
CC[C@@]1(O)C[C@H](O[C@H]2C[C@H](N(C)C)[C@H](O)[C@H](C)O2)c2c(O)c3c(c(O)c2[C@H]1O[C@H]1C[C@H](N(C)C)[C@H](O)[C@H](C)O1)C(=O)c1cccc(O)c1C3=O [NSC136044, Rhodomycin A]							Residual viable cells (%) 20 μM (epifluorescence microscope counting) [2]: 21%; Residual viable cells (epifluorescence microscope counting) [2]: 22%; Residual viable cells (%) 50 μM (epifluorescence microscope counting) [2]: 21%; Residual viable cells (%) 20 μM (SYBR Green I/PI assay) [3]: 5%; Residual viable cells (SYBR Green I/PI assay) [3]: 0%
Cc1c2oc3c(C)ccc(C(=O)N[C@@H]4C(=O)N[C@H](C(C)C)C(=O)N5CCC[C@H]5C(=O)N(C)CC(=O)N(C)[C@@H](C(C)C)C(=O)O[C@@H]4C)c3nc-2c(C(=O)N[C@@H]2C(=O)N[C@H](C(C)C)C(=O)N3CCC[C@H]3C(=O)N(C)CC(=O)N(C)[C@@H](C(C)C)C(=O)O[C@@H]2C)c(N)c1=O [NSC3053, Dactinomycin] (I: T[dV]P[Sar][NMeV] / II: T[dV]P[Sar][NMeV]; ester I:1-I:C, II:1-II:C; linker I:N-II:N via Actinocin(9to1))							MIC ([1]; growing B. burgdorferi, listed as Dactinomycin): ≦0.78 μg/mL; MIC ([1]; growing B. burgdorferi, listed as dactinomycin): ≤ 0.78 µg/mL; Residual viable cells (epifluorescence microscope counting) [2]: 30%; Activity against persisters (residual viable cell percentage) ([2]; stationary phase persisters): 30%; Residual viable cells (SYBR Green I/PI assay) [3]: 37%
Cc1cc(NS(=O)(=O)c2ccc(N)cc2)no1 [Smx, sulfamethoxazole]							MIC [1, 7]: ≤ 0.2 µg/mL
COCCOC1=C(Cl)C(=O)c2c(O)ccc(O)c2C1=O [NSC659997, Naphthalene-1,4-dione, 2-chloro-5,8-dihydroxy-3-(2-methoxyethoxy)-]		28	50	28	40	1	
O=C1c2cccc(NCCCNCCO)c2C(=O)c2cccc(NCCCNCCO)c21 [NSC363998, Anthracene-9,10-dione, 1,5-bis[3-[[(2-hydroxyethyl)amino]propyl]amino]-9,10-dihydro-, dihydrochloride]		13	14	13	22	0	
O=C1c2ccccc2C(=O)c2c(NCCNCCO)ccc(O)c21 [NSC299187, 9,10-Anthracenedione, 1-hydroxy-4-[[2-[(2-hydroxyethyl)amino]ethyl]amino]-]	13	13				5	MIC [1, 7]: 3.26 to 6.52 µg/mL (≈ 9.99 to 20 µM)
CCCCCC1=C/C(=C/c2[nH]c(-c3ccc[nH]3)cc2OC)N=C1C [NSC47147, Prodigiosin]	24	24	45	24			MIC ([1]; Borreliella burgdorferi): ≤ 0.2 µg/mL; MIC ([1]; growing B. burgdorferi): ≦0.2 μg/mL; viability at 20 µM ([3]; read-out: Residual viable cells (%) 20 μM (SYBR Green I/PI assay), 20 μM, seven day old stationary phase, 7 days): 0%; viability at 50 µM [3, 6]: 0%
Benzoic acid, 2-hydroxy-, (2,6-pyridinediyldiethylidyne)dihydrazide, nickel complex [NSC617570]							Residual viable cells (%) 20 μM (epifluorescence microscope counting) [2]: 50%; Residual viable cells (epifluorescence microscope counting) [2]: 38%; Residual viable cells (%) 50 μM (epifluorescence microscope counting) [2]: 38%; Residual viable cells (%) 20 μM (SYBR Green I/PI assay) [3]: 66%; Residual viable cells (SYBR Green I/PI assay) [3]: 44%
COc1cccc2c1C(=O)c1c(O)c3c(c(O)c1C2=O)C[C@@](O)(C(C)=O)C[C@@H]3OC1CC(N(C)C)C(O)C(C)O1 (some centres unmarked) [NSC258812, Dimethyldaunomycin hydrochloride]		10	10	10	0	0	
NC(=O)OCC1=C(COC(N)=O)C(=O)c2c(O)ccc(O)c2C1=O [NSC224124, (5,8-dihydroxy-1,4-dioxo-1,4-dihydronaphthalene-2,3-diyl)dimethanediyl dicarbamate]		31	77	31	54	32	
Cc1cc(O)c2c(c1)C(=O)c1cc(O)cc(O)c1C2=O [NSC408120, Emodin]		31				18	
Cc1ccc(NCCN(C)C)c2c(=O)c3cc(O)ccc3sc12 [NSC317003, 9H-Thioxanthen-9-one, 1-[[2-(dimethylamino)ethyl]amino]-7-hydroxy-4-methyl-, monohydriodide]		30				29	
COc1cccc2c1C(=O)c1c(O)c3c(c(O)c1C2=O)C[C@@](O)(/C(C)=N\O)C[C@@H]3OC1CC(N)C(O)C(C)O1.Cl (some centres unmarked) [NSC143491, Daunomycin 3-oxime hydrochloride]	6	6				0	MIC [1, 7]: ≤ 0.36 µg/mL
